Data reported in the supplement of paper PMC8372320.

Assay: photocatalytic hydrogen evolution rate (per 5 mg catalyst); higher = more photocatalytic H2 evolution; extreme values may be limits of the assay
Conditions: catalyst mass (mg): 5; Pt cocatalyst (wt%): 3; sacrificial medium: triethylamine/methanol/water 1:1:1
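Note: aromatic molecules in triethylamine/methanol/water with Pt photoreduced in situ, irradiated 3 h under a 1 sun AM 1.5G solar simulator (350–1000 nm), H2 quantified by headspace gas chromatography; listed molecule itself used as the photocatalyst at 5 mg per vial.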

Structure (SMILES) | photocatalytic hydrogen evolution rate [µmol/h]
c1ccc2c(c1)ccc1c3ccccc3ccc21 | 0
COc1ccnc(-c2cc(OC)ccn2)c1 | 0.169
O=Cc1c(O)c(C=O)c(O)c(C=O)c1O | 1.03
CCc1cc(C#N)ccc1C#N | 0
COc1ccc(OC)c(C=O)c1 | 10.9
O=C(c1ccccc1)c1ccccc1 | 3.25
N#CC1=C(C#N)SC(C#N)=C(C#N)S1 | 0
O=C(c1ccccc1)c1ccncc1 | 2.41
N#CCc1ccccc1C#N | 0
CCc1cc(C)cc(CC)c1Nc1ccc(Nc2c(CC)cc(C)cc2CC)c2c1C(=O)c1ccccc1C2=O | 0
Fc1c(F)c(-c2c(F)c(F)c(Br)c(F)c2F)c(F)c(F)c1Br | 0
COC(=O)c1ccc(-c2ccc(Br)cc2)cc1 | 0.0357
CC(=O)c1cc(C(C)=O)cc(C(C)=O)c1 | 1.98
Brc1c2ccccc2c(Br)c2ccccc12 | 0.0125
O=Cc1ccc(N2CCCCC2)cc1 | 0.431
c1ccc(-c2nc3ccccc3[nH]2)cc1 | 0
O=Cc1ccc(N2CCS(=O)(=O)CC2)cc1 | 2.73
Cc1c(CBr)c(C)c(CBr)c(C)c1CBr | 0
N#Cc1cc(C#N)cc(C#N)c1 | 0.00175
N#Cc1c(F)c(F)c(F)c(C#N)c1F | 0.386
Oc1c(Br)cc(Br)cc1Br | 0.0139
c1ccc(-c2cccc(-c3ccccn3)n2)nc1 | 0.17

Structure (SMILES) | photocatalytic hydrogen evolution rate [µmol/h]
N#CCC(=O)c1ccccc1 | 0
N#CCc1ccccc1-c1ccccc1CC#N | 0
O=C(O)c1ccccc1[N+](=O)[O-] | 0
COc1c(Br)cc(Br)cc1Br | 0
O=Cc1ccc(-c2nc(-c3ccc(C=O)cc3)nc(-c3ccc(C=O)cc3)n2)cc1 | 0.298
O=c1c2ccccc2sc2ccccc12 | 14.6
CCOC(=O)c1ccc(C(=O)OCC)cc1 | 0
COc1cc(C#N)c(C#N)cc1OC | 0
CCn1c2ccccc2c2cc(C=O)ccc21 | 2.45
O=C1C(c2ccccc2)=C(c2ccccc2)C(c2ccccc2)=C1c1ccccc1 | 0.0996
OC1c2ccccc2-c2ccccc21 | 0
c1ccc2nsnc2c1 | 0
N#Cc1c(O)[nH]c(=O)c(C#N)c1-c1ccccc1 | 0
O=Cc1ccc(-c2ccccc2)cc1 | 4.67
O=C(O)c1ccc2cc(C(=O)O)ccc2c1 | 0
c1ccc2nc3ccccc3nc2c1 | 0
COc1ccc(I)cc1 | 0
CC(=O)c1ccc(C#N)cc1 | 5.7
Nc1ccc(N)cc1 | 0
O=C1C=CC(=O)c2ccccc21 | 0
N#Cc1c(F)c(F)c(Br)c(F)c1F | 0
O=Cc1ccc(-c2ccccn2)cc1 | 5.1

Structure (SMILES) | photocatalytic hydrogen evolution rate [µmol/h]
c1ccc(-c2ccccc2-c2ccccc2)cc1 | 0
O=C1OC(=O)c2ccc3c4ccc5c6c(ccc(c7ccc1c2c73)c64)C(=O)OC5=O | 0
O=Cc1ccc(Oc2ccc(C=O)cc2)cc1 | 2.42
O=C1c2cccc(O)c2C(=O)c2cccc(O)c21 | 0
c1ccc(-c2ccccn2)nc1 | 0
O=Cc1cc(Br)cc(Br)c1 | 0.234
O=Cc1ccc(-c2ccncc2)cc1 | 3.29
Cc1ccc(N(c2ccc(C)cc2)c2ccc(C=O)cc2)cc1 | 0.0671
CCCCCCCCC1(CCCCCCCC)c2cc(Br)ccc2-c2ccc(Br)cc21 | 0
N#Cc1c(-n2c3ccccc3c3ccccc32)c(-n2c3ccccc3c3ccccc32)cc(-n2c3ccccc3c3ccccc32)c1-n1c2ccccc2c2ccccc21 | 1.65
C#Cc1ccc(C#N)cc1 | 0
c1ccc2cc3ccccc3cc2c1 | 0
O=Cc1ccc(O)c(O)c1 | 0
N#CCC(=O)c1ccc2c(c1)CCCC2 | 0
O=Cc1ccc(Cl)cc1 | 0.964
CC(=O)c1ccc(CCc2ccc(C(C)=O)cc2)cc1 | 0.387
CC1(C)OB(c2ccc3c4ccc(B5OC(C)(C)C(C)(C)O5)cc4n(-c4ccccc4)c3c2)OC1(C)C | 0.0133
N#CC(C#N)=C1CC(=C(C#N)C#N)c2ccccc21 | 0
O=Cc1ccc(-c2cncnc2)cc1 | 2.58
OC(c1ccccc1)c1ccccc1 | 0
CC(=O)c1ccc([N+](=O)[O-])cc1 | 0
O=C(O)c1ccc(-c2ccccc2)cc1 | 0

Structure (SMILES) | photocatalytic hydrogen evolution rate [µmol/h]
Nc1ccc2c(c1)C(=O)c1ccc(N)cc1C2=O | 0.006
c1ccc(-c2ccc(-c3ccc(-c4ccc(-c5ccccc5)cc4)cc3)cc2)cc1 | 0
N#CCC(=O)c1ccc(Br)cc1 | 0
CC(C)(C)c1ccc(C(=O)CC#N)cc1 | 0.0435
O=Cc1ncc[nH]1 | 0.469
O=Cc1cccc(C=O)c1 | 1.65
O=[N+]([O-])c1ccc(C(=C(c2ccc([N+](=O)[O-])cc2)c2ccc([N+](=O)[O-])cc2)c2ccc([N+](=O)[O-])cc2)cc1 | 0
N#Cc1cc(C#N)c(C#N)cc1C#N | 0
CC(C)(C)c1cc(C=O)cc(C(C)(C)C)c1O | 0
N#Cc1ccc(C#N)c(OC(F)(F)F)c1 | 0.153
c1ncncn1 | 0
COC(=O)c1cc(C(=O)OC)c(C(=O)OC)cc1C(=O)OC | 0
C#Cc1ccc(N)cc1 | 0
COC(=O)c1cccc(C(=O)OC)c1 | 0.023
c1ccc2ccccc2c1 | 0
Oc1ccc(-c2ccc(O)cc2)cc1 | 0.00401
COc1ccc(OC)cc1 | 0
N#Cc1ccc(-c2ccccc2)cc1 | 0
c1ccc2c(c1)C1c3ccccc3C2c2ccccc21 | 0.0408
N#Cc1cncc(C=O)c1 | 0.0889
O=C1c2ccccc2Cc2ccccc21 | 0
OB(O)c1ccc(B(O)O)cc1 | 0.053

Next, values leading:

photocatalytic hydrogen evolution rate [µmol/h] | Structure (SMILES)
0 | N#Cc1cc(Br)ccn1
0.241 | Fc1cc(Br)c2nsnc2c1Br
0 | Brc1c2c(c(Br)c3nsnc13)N=S=N2
0 | Cc1[nH]c(C=O)cc1C#N
0.229 | CC(=O)c1ccc(N)cc1
9.21 | Cn1c2ccc(Br)cc2c(=O)c2cc(Br)ccc21
0 | O=Cc1sc(Br)nc1Br
0 | Oc1c(Br)cc(Br)c(O)c1Br
0 | O=C1C(=O)c2cc(Br)ccc2-c2ccc(Br)cc21
0 | Brc1cc2ccc3cc(Br)cc4ccc(c1)c2c34
0 | N#Cc1ccc(Br)c(F)c1
0 | O=C1C=CC(=O)c2cc3ccccc3cc21
0.0795 | O=Cc1cc(F)cc(Br)c1
0 | N#Cc1ccc(Br)nc1
0 | Cn1cc(Br)nc(Br)c1=O
0 | N#Cc1cccnc1Br
0 | S=C=Nc1cc(Br)ccc1Br
0 | N#Cc1cc(Br)cs1
0 | O=C1C=C(O)C(=O)C=C1O
0 | Brc1cc2cc3sc(Br)cc3cc2s1
0 | O=C1Cc2cc(Br)cc(Br)c2N1

photocatalytic hydrogen evolution rate [µmol/h] | Structure (SMILES)
0 | Fc1cc(Br)c(F)cc1Br
0 | Brc1ccc(OCC2CCCCO2)c(Br)c1 (stereo not given)
0 | Nc1c(Br)cnc(Br)c1N
0.0266 | COC(=O)c1cccc(C(=O)OC)n1
0 | OB(O)c1ccc(Br)nc1
0 | Nc1cc(Br)c(Br)cc1N
0 | Fc1cc(Br)c(Br)cc1F
0 | Nc1cc(Br)ccc1Br
0 | N#Cc1ccncc1Br
0.0732 | Nc1cc(Br)ccc1-c1ccc(Br)cc1N
0 | Brc1ccc(Br)c2ccccc12
0 | N#Cc1ccc(Br)cn1
0.31 | N#Cc1cc(Br)cc(Br)c1O
0 | O=C1c2ccc(Br)cc2C(=O)c2ccc(Br)cc21
0 | N#Cc1ncccc1Br
0 | Brc1cccc(-c2cccc(Br)n2)n1
0 | Cc1ncc[nH]1
0 | Nc1ccc(Br)cc1Br
0.107 | O=Cc1cc(Br)nc(Br)c1
0.00675 | Brc1ncc(Br)n2ccnc12
0.16 | Brc1ccc2ccc3c(Br)ccc4ccc1c2c43
